# Results reported in patent US9101628B2, “Methods and composition of treating a flaviviridae family viral infection” (The Board of Trustees of the Leland Stanford Junior …, priority 2007, dated 2015).
# Tested on: HCV RNA replication
# Assay: RNA replication inhibition assay (luciferase reporter-linked HCV genome)
# Settings: Hepatitis C virus, percentage of untreated control population; for activity at 5 µM: read-out: Residual Luciferase activity, 5 micromolar; for activity at 10 µM: read-out: Residual Luciferase activity, 10 micromolar
smiles,measurement,value
Fc1cc2ncn(Cc3ccc(Cl)cc3)c2cc1F [Compound 94],activity at 5 µM,< 80%
same,activity at 10 µM,< 55%
OC[C@H]1CCCN1Cc1nc2ccccc2n1Cc1ccc(Cl)cc1 [Compound 95],activity at 5 µM,> 80%
same,activity at 10 µM,< 80%
Cc1cc2nc(CC3CCCC3)n(Cc3ccc(Cl)cc3)c2cc1C [Compound 96],activity at 5 µM,< 80%
same,activity at 10 µM,< 55%
Cc1cc2nc(CN3CCC[C@@H]3C)n(Cc3ccc(Cl)cc3)c2cc1C [Compound 97],activity at 5 µM,< 55%
same,activity at 10 µM,< 20%
Cc1cc2nc(CN3CCC[C@H]3C)n(Cc3ccc(Cl)cc3)c2cc1C [Compound 98],activity at 5 µM,< 55%
same,activity at 10 µM,< 20%
CCCS(=O)(=O)c1nc2ccccc2n1Cc1ccc(Cl)cc1 [Compound 99],activity at 5 µM,< 20%
same,activity at 10 µM,< 20%
Clc1ccc(Cn2ccc3cc(Cl)cnc32)cc1 [Compound 100],activity at 5 µM,> 80%
same,activity at 10 µM,< 80%
COc1c(Cl)cnc2c1ccn2Cc1ccc(Cl)cc1 [Compound 101],activity at 5 µM,> 80%
same,activity at 10 µM,< 80%
Cc1c(Cl)cnc2c1ccn2Cc1ccc(Cl)cc1 [Compound 102],activity at 5 µM,< 80%
same,activity at 10 µM,< 80%
N#Cc1cnc2c(ccn2Cc2ccc(Cl)cc2)c1 [Compound 103],activity at 5 µM,> 80%
same,activity at 10 µM,< 55%
N#Cc1ccc2c(ccn2Cc2ccc(Cl)cc2)n1 [Compound 104],activity at 5 µM,< 55%
same,activity at 10 µM,< 55%
N#Cc1cnc2ccn(Cc3ccc(Cl)cc3)c2c1 [Compound 105],activity at 5 µM,> 80%
same,activity at 10 µM,> 80%
COc1ccc(Cn2c(C)nc3c(NS(=O)(=O)c4ccc(F)cc4)c(C)c(C)cc32)cc1 [Compound 107],activity at 5 µM,< 80%
same,activity at 10 µM,< 55%
CCCC(=O)NCc1nc2ccccc2n1Cc1ccccc1C [Compound 109],activity at 5 µM,> 80%
same,activity at 10 µM,> 80%
CC(=O)NCc1nc2ccccc2n1Cc1ccc(Cl)cc1 [Compound 110],activity at 5 µM,> 80%
same,activity at 10 µM,> 80%
O=C(Cc1ccccc1)NCCCc1nc2ccccc2n1Cc1ccc(Cl)cc1 [Compound 111],activity at 5 µM,< 55%
same,activity at 10 µM,< 20%
CCc1nc2ccccc2n1Cc1ccc(Cl)cc1 [Compound 112],activity at 5 µM,> 80%
same,activity at 10 µM,< 80%
CCC(=O)NCc1nc2ccccc2[nH]1 [Compound 113],activity at 5 µM,> 80%
same,activity at 10 µM,> 80%
CCn1c(CNC=O)nc2ccccc21 [Compound 114],activity at 5 µM,> 80%
same,activity at 10 µM,> 80%
CC(C)(C)C(=O)NCc1nc2ccccc2[nH]1 [Compound 115],activity at 5 µM,< 80%
same,activity at 10 µM,> 80%
CCCCCc1nc2ccccc2n1Cc1ccc(Cl)cc1 [Compound 116],activity at 5 µM,< 55%
same,activity at 10 µM,< 20%
CCCCc1nc2ccccc2n1Cc1ccc(Cl)cc1 [Compound 117],activity at 5 µM,< 20%
same,activity at 10 µM,< 20%
CC(C)Cc1nc2ccccc2n1Cc1ccc(Cl)cc1 [Compound 118],activity at 5 µM,< 55%
same,activity at 10 µM,< 55%
CC(C)c1nc2ccccc2n1Cc1ccc(Cl)cc1 [Compound 119],activity at 5 µM,< 80%
same,activity at 10 µM,< 55%
Clc1ccc(Cn2c(Cc3ccccc3)nc3ccccc32)cc1 [Compound 120],activity at 5 µM,< 80%
same,activity at 10 µM,< 55%
CC(C)c1nc2ccccc2n1Cc1ccc(Cl)cc1Cl [Compound 121],activity at 5 µM,> 80%
same,activity at 10 µM,< 20%
Clc1ccc(Cn2c(Cc3ccccc3)nc3ccccc32)c(Cl)c1 [Compound 122],activity at 5 µM,< 55%
same,activity at 10 µM,< 55%
FC(F)(F)c1nc2ccccc2n1Cc1ccc(Cl)cc1 [Compound 123],activity at 5 µM,> 80%
same,activity at 10 µM,< 80%
FC(F)(F)c1nc2ccccc2n1Cc1ccc(Cl)c(Cl)c1 [Compound 124],activity at 5 µM,< 55%
same,activity at 10 µM,< 55%
Cc1nc2cc(Cl)ccc2n1Cc1ccccc1 [Compound 125],activity at 5 µM,< 80%
CC(=O)N(C)Cc1nc2ccccc2n1Cc1ccc(Cl)cc1Cl [Compound 126],activity at 5 µM,< 80%
same,activity at 10 µM,< 55%
Clc1ccc(Cn2c(CN3CCOCC3)nc3ccccc32)cc1 [Compound 127],activity at 5 µM,< 55%
same,activity at 10 µM,< 55%
Cc1cc2ncn(Cc3ccccc3)c2cc1C [Compound 128],activity at 5 µM,< 55%
same,activity at 10 µM,< 55%
Cc1cc2ncn(Cc3ccc(F)cc3)c2cc1C [Compound 129],activity at 5 µM,> 80%
same,activity at 10 µM,> 80%
Cc1cc2ncn(Cc3ccc(Cl)cc3Cl)c2cc1C [Compound 130],activity at 5 µM,< 55%
same,activity at 10 µM,< 20%
Cc1cc2ncn(Cc3ccc(Cl)c(Cl)c3)c2cc1C [Compound 131],activity at 5 µM,< 80%
same,activity at 10 µM,< 55%
NC1=NC2CCCCC2N1C(=O)c1ccc(Cl)cc1 (stereo not shown) [Compound 132],activity at 5 µM,> 80%
same,activity at 10 µM,> 80%
Nc1nc2ccccc2n1C(=O)c1ccc(Cl)cc1 [Compound 133],activity at 5 µM,> 80%
same,activity at 10 µM,< 55%
Brc1ccc(Cn2cnc3ccccc32)cc1 [Compound 134],activity at 5 µM,< 55%
same,activity at 10 µM,< 20%
Cc1nc2ccccc2n1Cc1ccc(Br)cc1 [Compound 135],activity at 5 µM,< 20%
same,activity at 10 µM,< 20%
OCc1nc2ccccc2n1Cc1ccc(Br)cc1 [Compound 136],activity at 10 µM,< 55%
N#Cc1ccc(Cn2cnc3ccccc32)cc1 [Compound 137],activity at 5 µM,< 80%
same,activity at 10 µM,< 80%
Cc1cc2ncn(Cc3ccc(C#N)cc3)c2cc1C [Compound 138],activity at 5 µM,< 80%
same,activity at 10 µM,> 80%
COC(=O)c1ccc(Cn2cnc3ccccc32)cc1 [Compound 139],activity at 5 µM,< 80%
same,activity at 10 µM,< 55%
COc1ccc(Cn2cnc3ccccc32)cc1OC [Compound 140],activity at 5 µM,< 20%
same,activity at 10 µM,< 55%
CC(C)(C)c1ccc(Cn2cnc3ccccc32)cc1 [Compound 141],activity at 5 µM,< 55%
same,activity at 10 µM,< 20%
Cc1ccc(Cn2cnc3ccccc32)cc1 [Compound 142],activity at 10 µM,< 55%
Oc1ccc(Cn2cnc3ccccc32)cc1 [Compound 143],activity at 5 µM,> 80%
same,activity at 10 µM,< 80%
COc1ccc(Cn2cnc3ccccc32)cc1 [Compound 144],activity at 5 µM,< 55%
same,activity at 10 µM,< 55%
Cc1cc2nc(/C=C/c3ccccc3)n(Cc3ccc(Cl)cc3)c2cc1C [Compound 145],activity at 5 µM,< 80%
same,activity at 10 µM,< 20%
Cc1cc2c(ncn2Cc2ccccc2)c(N)c1C [Compound 146],activity at 5 µM,< 80%
same,activity at 10 µM,< 80%
COc1ccc(Cn2c(C)nc3c(N)c(C)c(C)cc32)cc1 [Compound 147],activity at 5 µM,< 80%
same,activity at 10 µM,< 80%
CS(=O)(=O)c1ccc2c(c1)ncn2Cc1ccccc1 [Compound 149],activity at 5 µM,> 80%
same,activity at 10 µM,> 80%
CS(=O)(=O)c1ccc2c(c1)nc(C(F)(F)F)n2Cc1ccccc1 [Compound 150],activity at 5 µM,< 80%
same,activity at 10 µM,< 55%
CCOC(=O)Cc1nc2cc(S(C)(=O)=O)ccc2n1Cc1ccccc1 [Compound 151],activity at 5 µM,< 80%
same,activity at 10 µM,< 55%
CS(=O)(=O)c1ccc2c(c1)nc(S)n2Cc1ccccc1 [Compound 152],activity at 5 µM,< 80%
same,activity at 10 µM,< 55%
